Remaining binding data for two compounds are collected here from paper PMC9856672, “SGC-CAMKK2-1: A Chemical Probe for CAMKK2” (Cells, 2023).

For one assay, the target named is T1, CDK3 (Homo sapiens, UniProt Q00526).
T1 construct: purchased Eurofins DiscoverX KINOMEscan
The assay is described as follows: KINOMEscan 1 μM, CDK3. Format: binding. The conditions noted are these: 1000 nM; Entrez CDK3; read-out: Percent Control. The text has this: (§1) Supplement cells-12-00287-s001.zip/File S2. KinomeScan data for the CAMKK2 probe and negative control.xlsx, sheet "SGC-CAMKK2-1" | column: Percent Control

The target of the next assay is T2, STK39 (Homo sapiens, UniProt Q9UEW8).
T2 construct: purchased Eurofins DiscoverX KINOMEscan
The assay is described as follows: KINOMEscan 1 μM, STK39. Format: binding. The conditions noted are these: 1000 nM; Entrez STK39; read-out: Percent Control.
Source text: as §1

Another assay concerns the target T3, ERBB3 (Homo sapiens, UniProt P21860).
T3 construct: purchased Eurofins DiscoverX KINOMEscan
The assay is described as follows: KINOMEscan 1 μM, ERBB3. The class given is binding. The conditions noted are these: 1000 nM; Entrez ERBB3; read-out: Percent Control.
Source text: as §1

For assay [1], the target named is T4, EGFR(L747-E749del, A750P) (Homo sapiens, UniProt P00533, A750P/DEL747-749).
T4 construct: purchased Eurofins DiscoverX KINOMEscan
The assay is described as follows: KINOMEscan 1 μM, EGFR(L747-E749del, A750P). The class given is binding. The conditions noted are these: 1000 nM; Entrez EGFR; read-out: Percent Control.
Source text: as §1

The target in a further assay is T5, MAP3K3 (Homo sapiens, UniProt Q99759).
T5 construct: purchased Eurofins DiscoverX KINOMEscan
Nature of the assay: KINOMEscan 1 μM, MAP3K3. The conditions noted are these: 1000 nM; Entrez MAP3K3; read-out: Percent Control. Format: binding.
Source text: as §1

The target of another assay is T6, SNRK (Homo sapiens, UniProt Q9NRH2).
T6 construct: purchased Eurofins DiscoverX KINOMEscan
Nature of the assay: KINOMEscan 1 μM, SNRK. Format: binding. The conditions noted are these: 1000 nM; Entrez SNRK; read-out: Percent Control.
Source text: as §1

The target in another assay is T7, TEC (Homo sapiens, UniProt P42680).
T7 construct: purchased Eurofins DiscoverX KINOMEscan
Nature of the assay: KINOMEscan 1 μM, TEC. Format: binding. The conditions noted are these: 1000 nM; Entrez TEC; read-out: Percent Control.
Source text: as §1

The target of another assay is T8, EPHB4 (Homo sapiens, UniProt P54760).
T8 construct: purchased Eurofins DiscoverX KINOMEscan
Nature of the assay: KINOMEscan 1 μM, EPHB4. The class given is binding. The conditions noted are these: 1000 nM; Entrez EPHB4; read-out: Percent Control.
Source text: as §1

The next assay addresses T9, PCTK3 (Homo sapiens, UniProt Q07002).
T9 construct: purchased Eurofins DiscoverX KINOMEscan
Nature of the assay: KINOMEscan 1 μM, PCTK3. Format: binding. The conditions noted are these: 1000 nM; Entrez CDK18; read-out: Percent Control.
Source text: as §1

The target in assay [2] is T10, ABL1(M351T)-phosphorylated (Homo sapiens, UniProt P00519, M351T).
T10 construct: purchased Eurofins DiscoverX KINOMEscan
Nature of the assay: KINOMEscan 1 μM, ABL1(M351T)-phosphorylated. Format: binding. The conditions noted are these: 1000 nM; Entrez ABL1; read-out: Percent Control.
Source text: as §1

The target in another assay is T11, CDKL5 (Homo sapiens, UniProt O76039).
T11 construct: purchased Eurofins DiscoverX KINOMEscan
The assay is described as follows: KINOMEscan 1 μM, CDKL5. The class given is binding. The conditions noted are these: 1000 nM; Entrez CDKL5; read-out: Percent Control.
Source text: as §1

The next assay deals with T12, EGFR(L858R,T790M) (Homo sapiens, UniProt P00533, L858R/T790M).
T12 construct: purchased Eurofins DiscoverX KINOMEscan
The assay is described as follows: KINOMEscan 1 μM, EGFR(L858R,T790M). Format: binding. The conditions noted are these: 1000 nM; Entrez EGFR; read-out: Percent Control.
Source text: as §1

A further assay deals with T13, KIT(D816V) (Homo sapiens, UniProt P10721, D816V).
T13 construct: purchased Eurofins DiscoverX KINOMEscan
The assay is described as follows: KINOMEscan 1 μM, KIT(D816V). The class given is binding. The conditions noted are these: 1000 nM; Entrez KIT; read-out: Percent Control.
Source text: as §1

The target of the next assay is T14, MAP3K2 (Homo sapiens, UniProt Q9Y2U5).
T14 construct: purchased Eurofins DiscoverX KINOMEscan
Nature of the assay: KINOMEscan 1 μM, MAP3K2. Format: binding. The conditions noted are these: 1000 nM; Entrez MAP3K2; read-out: Percent Control.
Source text: as §1

A further assay has as its target T15, PFTAIRE2 (Homo sapiens, UniProt Q96Q40).
T15 construct: purchased Eurofins DiscoverX KINOMEscan
Nature of the assay: DiscoverX KINOMEscan binding assay at 1 μM, PFTAIRE2. The conditions noted are these: PFTAIRE2 (CDK15); Compound Concentration 1000 nM; read-out: Percent Control.
Source text: as §1

The target of another assay is T16, PKN2 (Homo sapiens, UniProt Q16513).
T16 construct: purchased Eurofins DiscoverX KINOMEscan
Nature of the assay: DiscoverX KINOMEscan binding assay at 1 μM, PKN2. The conditions noted are these: Compound Concentration 1000 nM, read-out: Percent Control.
Source text: as §1

Another assay deals with T17, RAF1 (Homo sapiens, UniProt P04049).
T17 construct: purchased Eurofins DiscoverX KINOMEscan
The assay is described as follows: DiscoverX KINOMEscan binding assay at 1 μM, RAF1. The conditions noted are these: Compound Concentration 1000 nM, read-out: Percent Control.
Source text: as §1

The target of a further assay is T18, SIK (Homo sapiens, UniProt P57059).
T18 construct: purchased Eurofins DiscoverX KINOMEscan
The assay is described as follows: DiscoverX KINOMEscan binding assay at 1 μM, SIK. The conditions noted are these: SIK (SIK1); Compound Concentration 1000 nM; read-out: Percent Control.
Source text: as §1

The target in assay [3] is T19, TYK2(JH1domain-catalytic) (Homo sapiens, UniProt P29597).
T19 construct: TYK2(JH1domain-catalytic); purchased Eurofins DiscoverX KINOMEscan
Nature of the assay: DiscoverX KINOMEscan binding assay at 1 μM, TYK2(JH1domain-catalytic). The conditions noted are these: Compound Concentration 1000 nM, read-out: Percent Control.
Source text: as §1

The next assay concerns the target T20, VRK2 (Homo sapiens, UniProt Q86Y07).
T20 construct: purchased Eurofins DiscoverX KINOMEscan
Nature of the assay: DiscoverX KINOMEscan binding assay at 1 μM, VRK2. The conditions noted are these: Compound Concentration 1000 nM, read-out: Percent Control.
Source text: as §1

The target of assay [4] is T21, ABL1(H396P)-nonphosphorylated (Homo sapiens, UniProt P00519, H396P).
T21 construct: purchased Eurofins DiscoverX KINOMEscan
Nature of the assay: KINOMEscan at 1 μM, ABL1(H396P)-nonphosphorylated. Format: binding. The conditions noted are these: 1000 nM, read-out: Percent Control. The source says:
(§2) Supplement cells-12-00287-s001.zip/File S2. KinomeScan data for the CAMKK2 probe and negative control.xlsx, sheet "SGC-CAMKK2-1N" | column: Percent Control

The target in the next assay is T22, ABL1-nonphosphorylated (Homo sapiens, UniProt P00519).
T22 construct: purchased Eurofins DiscoverX KINOMEscan
Nature of the assay: KINOMEscan at 1 μM, ABL1-nonphosphorylated. The class given is binding. The conditions noted are these: 1000 nM, read-out: Percent Control.
Source text: as §2

For another assay, the target named is T23, SgK110 (Homo sapiens, UniProt P0C264).
T23 construct: purchased Eurofins DiscoverX KINOMEscan
The assay is described as follows: KINOMEscan at 1 μM, SgK110. The conditions noted are these: 1000 nM, read-out: Percent Control. Format: binding.
Source text: as §2

Another assay deals with T24, MYO3A (Homo sapiens, UniProt Q8NEV4).
T24 construct: purchased Eurofins DiscoverX KINOMEscan
Nature of the assay: KINOMEscan at 1 μM, MYO3A. The class given is binding. The conditions noted are these: 1000 nM, read-out: Percent Control.
Source text: as §2

The next assay deals with T25, MAP4K5 (Homo sapiens, UniProt Q9Y4K4).
T25 construct: purchased Eurofins DiscoverX KINOMEscan
Nature of the assay: KINOMEscan at 1 μM, MAP4K5. The class given is binding. The conditions noted are these: 1000 nM, read-out: Percent Control.
Source text: as §2

The target in assay [5] is T26, ABL1(F317I)-phosphorylated (Homo sapiens, UniProt P00519, F317I).
T26 construct: purchased Eurofins DiscoverX KINOMEscan
Nature of the assay: KINOMEscan at 1 μM, ABL1(F317I)-phosphorylated. Format: binding. The conditions noted are these: 1000 nM, read-out: Percent Control.
Source text: as §2

Another assay has as its target T27, PRKD2 (Homo sapiens, UniProt Q9BZL6).
T27 construct: purchased Eurofins DiscoverX KINOMEscan
Nature of the assay: KINOMEscan at 1 μM, PRKD2. Format: binding. The conditions noted are these: 1000 nM, read-out: Percent Control.
Source text: as §2

Another assay deals with T28, SIK2 (Homo sapiens, UniProt Q9H0K1).
T28 construct: purchased Eurofins DiscoverX KINOMEscan
The assay is described as follows: KINOMEscan at 1 μM, SIK2. Format: binding. The conditions noted are these: 1000 nM, read-out: Percent Control.
Source text: as §2

The target of the next assay is T29, RIPK2 (Homo sapiens, UniProt O43353).
T29 construct: purchased Eurofins DiscoverX KINOMEscan
The assay is described as follows: KINOMEscan at 1 μM, RIPK2. The class given is binding. The conditions noted are these: 1000 nM, read-out: Percent Control.
Source text: as §2

The target of the next assay is T30, CDK5 (Homo sapiens, UniProt Q00535).
T30 construct: purchased Eurofins DiscoverX KINOMEscan
The assay is described as follows: KINOMEscan at 1 μM, CDK5. Format: binding. The conditions noted are these: 1000 nM, read-out: Percent Control.
Source text: as §2

The target in another assay is T31, PIK3CA(M1043I) (Homo sapiens, UniProt P42336, M1043I).
T31 construct: purchased Eurofins DiscoverX KINOMEscan
The assay is described as follows: KINOMEscan binding assay at 1 μM, PIK3CA(M1043I). The conditions noted are these: Compound Concentration 1000 nM; read-out: Percent Control.
Source text: as §2

Another assay has as its target T32, TYRO3 (Homo sapiens, UniProt Q06418).
T32 construct: purchased Eurofins DiscoverX KINOMEscan
Nature of the assay: KINOMEscan binding assay at 1 μM, TYRO3. The conditions noted are these: Compound Concentration 1000 nM; read-out: Percent Control.
Source text: as §2

T17 sequence (P04049 whole entry): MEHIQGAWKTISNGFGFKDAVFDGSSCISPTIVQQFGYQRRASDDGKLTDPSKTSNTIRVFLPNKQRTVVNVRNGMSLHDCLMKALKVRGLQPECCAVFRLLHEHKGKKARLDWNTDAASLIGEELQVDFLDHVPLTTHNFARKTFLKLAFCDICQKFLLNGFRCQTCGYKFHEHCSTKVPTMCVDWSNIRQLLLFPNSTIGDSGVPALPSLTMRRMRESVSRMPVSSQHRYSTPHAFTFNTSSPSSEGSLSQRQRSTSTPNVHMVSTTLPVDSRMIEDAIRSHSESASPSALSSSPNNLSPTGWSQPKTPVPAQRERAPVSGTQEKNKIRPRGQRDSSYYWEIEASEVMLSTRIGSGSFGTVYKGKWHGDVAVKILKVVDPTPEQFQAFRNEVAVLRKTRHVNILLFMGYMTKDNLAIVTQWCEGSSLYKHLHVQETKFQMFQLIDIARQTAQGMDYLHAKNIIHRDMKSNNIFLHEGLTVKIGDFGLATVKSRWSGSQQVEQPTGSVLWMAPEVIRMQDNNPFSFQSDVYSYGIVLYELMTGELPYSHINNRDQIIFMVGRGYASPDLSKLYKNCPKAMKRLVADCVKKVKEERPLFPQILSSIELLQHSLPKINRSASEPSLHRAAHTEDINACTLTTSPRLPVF
T5 sequence (Q99759 whole entry): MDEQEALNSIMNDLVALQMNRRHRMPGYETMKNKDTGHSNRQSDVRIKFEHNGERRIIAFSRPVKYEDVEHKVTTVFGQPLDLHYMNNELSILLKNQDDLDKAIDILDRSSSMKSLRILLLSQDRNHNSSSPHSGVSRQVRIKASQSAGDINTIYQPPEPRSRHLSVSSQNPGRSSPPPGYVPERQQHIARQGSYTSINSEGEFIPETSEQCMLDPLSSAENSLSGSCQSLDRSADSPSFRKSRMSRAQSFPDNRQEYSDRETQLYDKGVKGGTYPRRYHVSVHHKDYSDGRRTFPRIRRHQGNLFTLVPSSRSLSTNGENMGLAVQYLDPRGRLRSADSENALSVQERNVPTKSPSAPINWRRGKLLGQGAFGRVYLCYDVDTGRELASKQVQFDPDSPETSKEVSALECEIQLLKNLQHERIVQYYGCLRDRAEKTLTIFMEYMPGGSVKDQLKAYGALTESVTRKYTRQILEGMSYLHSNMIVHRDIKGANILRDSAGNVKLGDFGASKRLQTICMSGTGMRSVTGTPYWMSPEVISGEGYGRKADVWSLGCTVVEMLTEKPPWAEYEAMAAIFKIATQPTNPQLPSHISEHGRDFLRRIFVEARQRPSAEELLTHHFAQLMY
T9 sequence (Q07002 whole entry): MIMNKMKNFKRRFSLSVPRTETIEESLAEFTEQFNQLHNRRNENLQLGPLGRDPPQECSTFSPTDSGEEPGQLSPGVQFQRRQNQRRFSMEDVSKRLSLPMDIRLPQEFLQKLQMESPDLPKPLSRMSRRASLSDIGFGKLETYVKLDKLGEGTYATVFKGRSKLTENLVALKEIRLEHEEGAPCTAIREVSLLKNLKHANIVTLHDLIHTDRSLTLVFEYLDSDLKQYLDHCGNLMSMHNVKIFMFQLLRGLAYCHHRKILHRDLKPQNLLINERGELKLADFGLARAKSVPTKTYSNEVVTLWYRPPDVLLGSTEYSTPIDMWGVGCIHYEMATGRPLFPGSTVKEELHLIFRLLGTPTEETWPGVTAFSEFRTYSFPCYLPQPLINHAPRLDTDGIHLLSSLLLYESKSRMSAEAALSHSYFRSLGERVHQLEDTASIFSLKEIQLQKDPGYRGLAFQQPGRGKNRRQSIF
T24 sequence (Q8NEV4 whole entry): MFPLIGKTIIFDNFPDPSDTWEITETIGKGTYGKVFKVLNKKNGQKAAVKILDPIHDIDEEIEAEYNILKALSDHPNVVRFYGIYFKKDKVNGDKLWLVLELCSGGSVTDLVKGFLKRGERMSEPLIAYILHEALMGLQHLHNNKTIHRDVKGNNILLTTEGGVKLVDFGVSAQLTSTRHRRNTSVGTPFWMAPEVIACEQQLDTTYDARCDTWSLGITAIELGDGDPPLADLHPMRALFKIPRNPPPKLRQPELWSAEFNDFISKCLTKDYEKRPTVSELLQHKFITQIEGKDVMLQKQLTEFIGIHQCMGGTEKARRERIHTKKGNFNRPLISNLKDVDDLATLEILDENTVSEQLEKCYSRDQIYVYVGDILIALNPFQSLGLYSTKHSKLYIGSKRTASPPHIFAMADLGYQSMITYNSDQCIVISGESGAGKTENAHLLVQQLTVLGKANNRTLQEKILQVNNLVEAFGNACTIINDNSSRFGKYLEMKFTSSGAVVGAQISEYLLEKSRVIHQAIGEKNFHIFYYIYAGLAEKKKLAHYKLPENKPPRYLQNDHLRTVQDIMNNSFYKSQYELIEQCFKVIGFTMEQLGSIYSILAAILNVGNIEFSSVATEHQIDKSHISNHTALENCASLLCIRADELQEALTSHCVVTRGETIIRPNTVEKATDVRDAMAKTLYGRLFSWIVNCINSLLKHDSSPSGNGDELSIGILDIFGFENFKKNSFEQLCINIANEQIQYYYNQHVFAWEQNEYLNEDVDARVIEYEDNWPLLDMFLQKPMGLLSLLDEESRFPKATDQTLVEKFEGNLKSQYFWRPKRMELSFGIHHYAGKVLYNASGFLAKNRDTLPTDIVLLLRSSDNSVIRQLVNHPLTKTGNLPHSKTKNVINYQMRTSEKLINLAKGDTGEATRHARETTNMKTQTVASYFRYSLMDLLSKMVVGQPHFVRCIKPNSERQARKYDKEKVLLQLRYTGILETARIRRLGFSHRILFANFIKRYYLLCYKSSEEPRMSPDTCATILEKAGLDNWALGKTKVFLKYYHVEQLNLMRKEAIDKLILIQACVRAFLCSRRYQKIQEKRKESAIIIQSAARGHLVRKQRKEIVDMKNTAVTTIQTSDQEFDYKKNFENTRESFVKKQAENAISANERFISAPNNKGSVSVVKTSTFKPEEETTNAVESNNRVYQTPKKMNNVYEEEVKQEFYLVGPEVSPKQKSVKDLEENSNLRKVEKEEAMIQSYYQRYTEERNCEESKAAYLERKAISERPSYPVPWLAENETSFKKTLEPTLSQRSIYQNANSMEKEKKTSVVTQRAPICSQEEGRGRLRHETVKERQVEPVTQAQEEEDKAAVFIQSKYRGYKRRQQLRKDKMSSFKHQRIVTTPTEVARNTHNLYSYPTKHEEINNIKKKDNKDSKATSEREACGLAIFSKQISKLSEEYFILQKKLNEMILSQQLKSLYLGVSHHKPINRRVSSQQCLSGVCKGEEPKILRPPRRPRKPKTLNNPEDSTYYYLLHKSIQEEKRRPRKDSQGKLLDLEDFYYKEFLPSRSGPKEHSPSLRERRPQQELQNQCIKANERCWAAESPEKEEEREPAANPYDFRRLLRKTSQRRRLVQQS
T8 sequence (P54760 16-987): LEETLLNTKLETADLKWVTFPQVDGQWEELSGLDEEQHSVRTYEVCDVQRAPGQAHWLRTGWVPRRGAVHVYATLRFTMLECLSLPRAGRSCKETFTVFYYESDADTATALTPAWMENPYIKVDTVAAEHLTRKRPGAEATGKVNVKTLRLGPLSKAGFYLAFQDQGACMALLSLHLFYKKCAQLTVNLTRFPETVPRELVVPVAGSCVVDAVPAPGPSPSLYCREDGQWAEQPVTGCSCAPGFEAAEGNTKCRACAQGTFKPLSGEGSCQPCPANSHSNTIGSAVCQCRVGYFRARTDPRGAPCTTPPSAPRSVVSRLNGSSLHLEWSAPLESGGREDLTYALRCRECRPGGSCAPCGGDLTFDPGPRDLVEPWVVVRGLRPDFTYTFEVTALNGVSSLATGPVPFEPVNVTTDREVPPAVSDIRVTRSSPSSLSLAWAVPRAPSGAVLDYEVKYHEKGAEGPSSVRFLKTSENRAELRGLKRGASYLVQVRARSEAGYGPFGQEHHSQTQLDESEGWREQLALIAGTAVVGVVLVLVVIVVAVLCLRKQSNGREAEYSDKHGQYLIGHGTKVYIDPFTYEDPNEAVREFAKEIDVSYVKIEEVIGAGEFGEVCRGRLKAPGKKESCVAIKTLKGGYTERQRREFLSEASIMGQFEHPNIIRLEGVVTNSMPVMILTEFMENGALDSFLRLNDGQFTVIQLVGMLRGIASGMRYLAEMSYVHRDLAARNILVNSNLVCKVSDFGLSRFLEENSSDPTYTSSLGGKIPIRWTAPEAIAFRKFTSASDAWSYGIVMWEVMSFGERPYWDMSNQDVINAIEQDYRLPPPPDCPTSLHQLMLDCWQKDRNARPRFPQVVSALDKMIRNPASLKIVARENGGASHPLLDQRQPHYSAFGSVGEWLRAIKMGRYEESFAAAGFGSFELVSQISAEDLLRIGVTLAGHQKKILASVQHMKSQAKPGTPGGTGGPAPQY
T6 sequence (Q9NRH2 whole entry): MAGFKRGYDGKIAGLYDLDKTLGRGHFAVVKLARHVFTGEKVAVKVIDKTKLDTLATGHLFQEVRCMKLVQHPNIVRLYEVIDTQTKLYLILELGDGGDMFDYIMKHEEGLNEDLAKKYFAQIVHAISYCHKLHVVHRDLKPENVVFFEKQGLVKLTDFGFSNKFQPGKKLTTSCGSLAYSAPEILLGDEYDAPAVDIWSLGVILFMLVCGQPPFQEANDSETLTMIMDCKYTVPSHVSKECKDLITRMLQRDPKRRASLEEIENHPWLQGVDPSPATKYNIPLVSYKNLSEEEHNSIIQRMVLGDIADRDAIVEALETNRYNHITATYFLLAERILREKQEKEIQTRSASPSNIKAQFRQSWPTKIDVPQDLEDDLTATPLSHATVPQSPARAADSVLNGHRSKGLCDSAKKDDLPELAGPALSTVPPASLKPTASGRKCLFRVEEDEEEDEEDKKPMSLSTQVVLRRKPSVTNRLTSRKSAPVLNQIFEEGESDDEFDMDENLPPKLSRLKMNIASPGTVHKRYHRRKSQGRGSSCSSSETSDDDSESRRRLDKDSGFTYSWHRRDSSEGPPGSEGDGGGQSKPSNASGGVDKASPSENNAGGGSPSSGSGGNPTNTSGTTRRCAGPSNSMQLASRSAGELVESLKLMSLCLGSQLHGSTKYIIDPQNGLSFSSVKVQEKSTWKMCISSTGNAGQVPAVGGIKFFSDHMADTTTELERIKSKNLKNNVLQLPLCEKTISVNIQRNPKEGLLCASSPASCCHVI

With `Cc1cccc(-c2cnc3occ(-c4ccc(C(=O)O)c(C5CCCC5)c4)c3c2)c1` [SGC-CAMKK2-1 (YL-36)], the remaining binding at 1 µM is 59% on CDK3; 64% on STK39; 86% on ERBB3; 87% in [1]; 88% on MAP3K3; 94% on SNRK. Further, the remaining binding at 1 µM on TEC came to 95%; on EPHB4, 98%; on PCTK3 it was 99%; in assay [2] it was 100%; at CDKL5, 100%; on EGFR(L858R,T790M), 100%. The remaining binding at 1 µM at KIT(D816V), on MAP3K2, on PFTAIRE2, at PKN2, on RAF1 and on SIK was 100% throughout. Further, the remaining binding at 1 µM (in [3]; at VRK2) was 100% each time.
As for `O=C(O)c1ccc(-c2coc3ncc(-c4ccccc4)cc23)cc1Cl` [SGC-CAMKK2-1N (UNC-YL-83)], the remaining binding at 1 µM in assay [4] amounted to 64%; at ABL1-nonphosphorylated, 66%; at SgK110, 69%; on MYO3A, 72%; on MAP4K5 it was 89%; in assay [5], 90%. Besides, the remaining binding at 1 µM on PRKD2 was 91%; on SIK2 it was 93%; on RIPK2, 99%; at CDK5, 100%; on PIK3CA(M1043I), 100%; on TYRO3, 100%.
